# Results from patent US8119691B2, “Method for treating airway hyper-responsiveness with lipoxin analogs” (National Institutes of Health (NIH), priority 2001, dated 2012).
# What was measured:
# [1] = tested on: OVA sensitized mice; assay: Airway responsiveness to intravenous methacholine (lung resistance, ED200) in OVA sensitized and aerosol challenged mice; format: in vivo, mouse (BALB/c)
# Description: FIG. 1. Inhibition of airway hyper-responsiveness with LXa. OVA sensitized mice were treated with LXa ([…]) (o) or vehicle (•) prior to OVA aerosol challenge. Airway reactivity was determined by methacholine-dependent change in lung resistance (a) and calculation of ED200 (b). Results are expressed as mean±SEM (n≧17 in (a) and n≧6 (b)). *P<0.05 by Student's t-test compared to control animals.
# After systemic sensitization to ovalbumin (OVA, 10 μg i.p.), male Balb/c mice (5-7 weeks) were exposed to aerosolized OVA (6%, 25 min) on four successive days. 24 hours after the last aerosol, bronchial responsiveness to intravenous methacholine was determined (as in refs. 14, 15), bronchoalveolar lavage was performed and tissues were harvested for microscopy. […] After allergen sensitization and aerosol challenge, high levels of both CysLT (139.0+/−27.3 pg CysLT/ml, mean+/−SEM, n=9) and PGE2 (1117.7+/−103.8 pg PGE2/ml, mean+/−SEM, n=5) in bronchoalveolar lavage (BAL) (Table 1) were identified. In these same BAL fluids, LXA4 was also present (15.0+/−3.3 pg LXA4/ml, mean+/−SEM, n=5) at levels similar to LTB4 (6.4+/−2.3 pg LTB4/ml, mean+/−SEM, n=9), but in 10- to 100-fold lower concentrations than CysLT's and PGE2, respectively (Table 1). LXA4 was not detected in cell-free BAL supernatants from non-immunized mice.
# (§1) Sensitization and challenge protocols. Five to seven week old male BALB/c (Charles River Laboratories, Wilmington, Mass.) or female hCD11b-hALX FvB transgenic mice were housed in isolation cages under viral antibody-free conditions. After Harvard Medical Area IRB approval (Protocol #02570), mice were sensitized with intraperitoneal injections of ovalbumin (OVA) (Grade III; Sigma Chemical Co., St. Louis, Mo.) (10 μg) plus 1 mg aluminum hydroxide (ALUM) (J.T. Baker Chemical Co.; Phillipsburg, N.J.) as adjuvant in 0.2 ml PBS on days 0 and 7. […] On day 18, 24 h after the last aerosol challenge, airway responsiveness to intravenous methacholine (33-1000 μg/kg) was measured, bilateral bronchoalveolar lavage (BAL) (2 aliquots of 1 ml PBS plus 0.6 mM EDTA) was performed and tissues (whole blood, lungs, mediastinal lymph nodes and spleen) were harvested for histological analysis. Lung resistance (RL) was measured using a sealed constant mass plethysmograph. […] For mice studied using a whole body plethysmograph to assess airway responsiveness (Buxco), each mouse was placed into a chamber and box pressure/time waveform was analyzed to yield the indicator of airflow obstruction, enhanced pause (Penh). […] Readings were initiated at 3 min and continued for 12 min. Peak and one min average Penh values were determined. Serum total IgE levels were determined by ELISA (Crystal Chem, Chicago, Ill.). […]
# [2] = tested on: OVA sensitized and challenged mice; assay: Leukocytes in bronchoalveolar lavage fluid (Wright-Giemsa stain) of OVA sensitized and challenged mice; format: in vivo, mouse (BALB/c); details: LXa i.v.
# Description: FIG. 3. […] Bronchoalveolar lavage fluids were obtained from OVA sensitized and challenged mice. Leukocytes in bronchoalveolar lavage fluid were enumerated and identified after Wright-Giemsa stain (a). Mediator profile of (b) specific cytokines (IL-5, IL-12, IL-13, eotaxin and TNFα), and lipid mediators, including PGE2 (c), LTB4 and cysLT's (d) were determined by ELISA's in materials from control animals and those receiving LXa (10 μg, i.v.). Results are expressed as mean±SEM (n≧6, d≧2). *P<0.05 by Student's t-test compared to control animals.
# as §1, with “conditions.” for “conditions. After Harvard Medical Area IRB approval (Protocol #02570), mice were sensitized with intraperitoneal injections of ovalbumin (OVA) (Grade III; Sigma Chemical Co., St. Louis, Mo.) (10 μg) plus 1 mg aluminum hydroxide (ALUM) (J.T. Baker Chemical Co.; Phillipsburg, N.J.) as adjuvant in 0.2 ml PBS on days 0 and 7.”
# Allergen-initiated respiratory inflammation. Measurement of inflammatory mediators was determined in cell-free BAL fluid (2000 g, 10 min) by sensitive and specific ELISA's, in tandem, for interleukin-5 (IL-5), IL-13, eotaxin, tumor necrosis factor (TNFα) (R&D Systems, Minneapolis, Minn.), LTB4, cysteinyl LT, PGE2 (Cayman Chemical Co., Ann Arbor, Mich.), and LXA4 (Neogen, Lexington, Ky.). […]
# [3] = target: T1, recombinant cysLT1 receptors (Homo sapiens, UniProt Q9Y271); details: CHO cells, in vitro (ref. 12); cited from earlier work
# T1 construct: host or cells: Chinese hamster ovary cells (recombinant expression)
# T1 sequence (Q9Y271 1-337): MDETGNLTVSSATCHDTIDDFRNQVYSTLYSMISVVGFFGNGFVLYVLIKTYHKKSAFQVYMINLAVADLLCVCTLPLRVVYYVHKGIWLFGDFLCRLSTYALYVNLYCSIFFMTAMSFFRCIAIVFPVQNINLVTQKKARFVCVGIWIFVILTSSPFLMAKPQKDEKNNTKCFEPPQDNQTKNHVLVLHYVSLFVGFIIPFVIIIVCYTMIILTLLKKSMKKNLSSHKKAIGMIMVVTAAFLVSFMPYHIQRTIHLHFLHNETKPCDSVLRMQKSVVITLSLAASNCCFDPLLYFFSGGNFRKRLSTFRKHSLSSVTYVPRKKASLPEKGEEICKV
structure (smiles),measurement,setting,value
"COC(=O)CCC[C@H](O)[C@H](O)/C=C/C=C/C=C\C=C\[C@H](O)COc1ccc(F)cc1 [LXa, 15-epi,16-para-fluoro-phenoxy-LXA4-methyl ester]",ED200 to methacholine,"[1]; LXa 10 μg i.v., OVA sensitized and challenged mice",approximated the responses of control mice that had been sensitized but not challenged with OVA
same,"ED200 to methacholine, LXa administration alone","[1]; LXa alone, compared to control mice",no significant differences in ED200 compared to control mice
same,bronchoconstriction in response to methacholine (change in lung resistance),"[1]; LXa i.v. at least 60 min prior to OVA challenge, OVA sensitized mice",significantly inhibited bronchoconstriction in response to methacholine in a dose-dependent manner
same,deleterious physiologic or behavioral effects,[1]; LXa treated mice,Neither deleterious physiologic nor behavioral effects were evident
same,BAL eosinophils,[2],sharply reduced in a dose-dependent fashion
same,BAL lymphocytes,[2],sharply reduced in a dose-dependent fashion
same,BAL total leukocytes,[2],sharply reduced in a dose-dependent fashion
same,competition for binding at LTD4 recognition sites and recombinant cysLT1 receptors,[3],compete for binding with high affinity at LTD4 recognition sites
